Experimental data published in patent US20250129033A1, “METAP2 INHIBITORS AND USES THEREOF” (Yissum Research Development Company of the Hebrew …, priority 2022, published 2025).
Each block holds one compound with its values, some of them ahead of it.

Key:
MetAP2 = MetAP2 (Homo sapiens, UniProt P50579); experiment: MetAp2 enzymatic assay, L-Met-AMC substrate (Experimental Set-Up 1); assay type: biochemical
Description: Quantitative MetAP2 activity assay by N-terminal cleavage of substrate 7-amino-4-methyl-courmarin was performed as follows: The activity of MetAP2 was measured using fluorescent peptide substrate L-Met-AMC (Santa Cruz Biotechnology, Inc, sc-207807) as described by Garrabrant et al. (Angiogenesis 7: 91-96, 2004). Briefly, the reaction (100 μl final) was initiated by adding 0.5 μg of MetAP2 or 5 μg HUVEC homogenate to reaction buffer containing 50 mM HEPES (pH 7.4), 100 mM NaCl, 0.1 mM CoCl2, 1 mg/ml PEG6000, and 250 μM L-Met-AMC substrate. The assay was prepared in black flat-bottomed 96-well microtiter plates and fluorescence was measured every 20 s over a period of 60 min at 25° C. using a microplate fluorometer (Bioteck, SynergyHT), with excitation and emission wavelengths set at 360 and 440 nm respectively. As a control the inhibition of the enzyme was obtained by incubating it with TNP-470 for 15 min before the addition of the substrate.
The inhibitory effect of the compounds were tested in MetAp2 enzymatic assay.

[1] = cited from earlier work
[2] = tested on: Choroidal Neovascularization (CNV); experiment: Laser-induced CNV in mice; assay type: in vivo, C57Bl/6J mice; settings: Eylea, in the given dose and time
Description: Laser-induced CNV was generated by a previously described technique with some modifications. C57Bl/6J mice (6-8 weeks) were anesthetized by intraperitoneal injections of a mixture of 85% ketamine and 15% xylazine. A mixture of 0.5% tropicamide and 0.5% phenylephrine hydrochloride was applied to both eyes to dilate the pupils. Lesions were induced by a diode pumped solid state laser (0.1 s; spot size, 100 μm; power 120 mW) around the optic nerve through a slit lamp delivery system using a Nidek while a hand-held cover slide was used as a contact lens. Only lesions in which a subretinal bubble or focal serous detachment of the retina developed were used for the experiments. For this purpose, 4 burns were performed per eye while leaving a space around the optic disc. Intravitreal injections of the treatments were performed using a PLI-100 Pico-Injector following the laser procedure. After 7 days mice were euthanized and their eyes were removed and fixed in 4% paraformaldehyde for 60 min. The cornea and lens were removed, and the entire retina was carefully dissected from the eyecup Choroid.
Blood vessels were labeled using a 1:200 dilution of isolectin IB4 conjugated with Alexa Fluor 488 or lectin-FITC. The eyecup was flat-mounted in an aqua-mount with the sclera facing down and the choroid facing up. […] The CNV area (presented in μm2) in choroidal flat mount was evaluated using ImageJ software […]

MetAP2, sequence (P50579 whole entry): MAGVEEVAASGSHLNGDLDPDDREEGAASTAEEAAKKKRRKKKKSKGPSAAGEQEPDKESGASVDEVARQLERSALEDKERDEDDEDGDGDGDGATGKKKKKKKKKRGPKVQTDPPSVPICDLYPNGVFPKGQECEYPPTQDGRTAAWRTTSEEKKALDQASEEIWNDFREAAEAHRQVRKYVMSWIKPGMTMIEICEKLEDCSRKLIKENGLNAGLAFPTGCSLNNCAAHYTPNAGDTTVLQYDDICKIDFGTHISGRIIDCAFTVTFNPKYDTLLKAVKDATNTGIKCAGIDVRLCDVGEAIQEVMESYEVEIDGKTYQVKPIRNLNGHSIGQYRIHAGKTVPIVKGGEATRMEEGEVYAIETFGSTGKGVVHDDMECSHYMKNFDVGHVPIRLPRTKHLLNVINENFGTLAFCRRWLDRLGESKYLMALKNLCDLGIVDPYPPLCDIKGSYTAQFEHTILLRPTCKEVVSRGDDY

Compound: CO[C@@H]1[C@H](OC(=O)NC(=O)CCl)CC[C@]2(CO2)[C@H]1[C@@]1(C)O[C@@H]1CC=C(C)C [AD-3201]
inhibition of the catalytic activity of MetAp2 (MetAP2; 0.5 microM): 75%
inhibition of the catalytic activity of MetAp2 (MetAP2; 2.5 microM): 97%

activity in inhibiting the catalytic activity of MetAp2 compared to TNP-470 (MetAP2): almost identical to TNP-470
inhibitory effect in MetAp2 enzymatic assay (ranking among compounds) (MetAP2): most active
Compound: CO[C@@H]1[C@H](OC(=O)C23CC4(C)CC(C)(CC(C)(C4)C2)C3)CC[C@]2(CO2)[C@H]1[C@@]1(C)O[C@@H]1CC=C(C)C [AD-3306, Fumagillol-3,5,7-trimethyladamantane-1-carboxylate]

Compound: CO[C@H]1C(C2(C)O[C@@H]2CC=C(C)C)[C@]2(CC[C@H]1OC(=O)NC(=O)CCl)CO2 (some centres unmarked) [TNP-470, O-chloroacetylcarbamoyl fumagillol]
inhibition at 2.5 µM (MetAP2; 2.5 microM, read-out: inhibition of the catalytic activity of MetAp2): 95%
adverse side-effects ([1]; in high doses): reversible neurotoxicity in some patients
half-life in plasma ([1]; intravenous formulation): minutes

Compound: Eylea: the standard of care, as treatment for “wet” AMD [reference compound]
effect on mouse laser induced CNV [2]: 59%
